# From PMC12738692, “Identification, characterization, and structure-activity relationship of the ASIC3-selective peptide WRPRFa” (Communications Chemistry, 2025)
# Positions count from the first letter of the chain named. pEC50: −log10 of the molar value. Where no end group is shown, it is not given here.
# Experiments:
# Assay type in all cases: cell-based
# human ASIC3 [1] = biological target: T1, human ASIC3 (Homo sapiens, UniProt Q9UHC3); test: Time-dependence of WRPRFa wash off from activated (pH 6.3) and resting (pH 8.0) ASIC3
# T1 construct: CHO cells stably expressing human ASIC3 (NM_004769.1)
# T1 sequence (Q9UHC3 1-531): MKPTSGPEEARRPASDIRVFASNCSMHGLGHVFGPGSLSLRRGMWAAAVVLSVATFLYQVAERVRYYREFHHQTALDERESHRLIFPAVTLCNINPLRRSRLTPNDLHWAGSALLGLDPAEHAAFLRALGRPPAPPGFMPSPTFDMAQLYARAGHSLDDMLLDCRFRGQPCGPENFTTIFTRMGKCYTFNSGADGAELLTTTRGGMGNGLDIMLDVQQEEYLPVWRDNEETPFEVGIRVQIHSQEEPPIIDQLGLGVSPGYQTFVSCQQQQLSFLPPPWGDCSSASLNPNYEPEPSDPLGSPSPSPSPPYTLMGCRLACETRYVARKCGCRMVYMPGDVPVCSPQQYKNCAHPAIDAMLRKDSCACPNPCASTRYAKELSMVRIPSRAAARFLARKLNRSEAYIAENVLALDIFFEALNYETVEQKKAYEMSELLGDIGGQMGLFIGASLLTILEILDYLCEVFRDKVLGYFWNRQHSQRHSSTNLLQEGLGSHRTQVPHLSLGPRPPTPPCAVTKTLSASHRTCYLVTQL
# Experimental: Next, we assessed the rate at which WRPRFa leaves the channel from the activated and closed states. We preincubated cells with WRPRFa to load channels with peptide, then used two different protocols to remove the peptide. For dissociation from the activated state, we preincubated cells at pH 8.0 with 30 µM WRPRFa, then continuously applied pH 6.3 without WRPRFa to activate the channels while washing off bound peptide. HEK cells poorly tolerate long periods of acid application and sodium influx, so acid application was kept to 1 min. […] The first decrease of current likely arose from desensitization of unbound channels, and possibly also from an initial dissociation of peptide from activated channels, which subsequently desensitized.
# For dissociation from resting state channels, we continuously applied pH 8.0 without peptide to remove WRPRFa. Every 20 s the cells were given a 5 s application of pH 6.3 to quantify the remaining sustained current. A 5 s activation was used to minimize wash-off from the activated state, which was deemed negligible based on the observed off-rate under the pH 6.3 condition. The sustained current was about 95% gone after 3 min, with a time constant of 43.5 s (95% CI: 39.0–48.4 s) (Fig. 3D and E). […]
# ASIC313 = biological target: T2, ASIC313 (Homo sapiens, UniProt Q9UHC3); test: MPC WRPRFa concentration-response on concatemer ASIC313; conditions: read-out: lower limit EC50
# T2 construct: placing human ASIC1a and human ASIC3 ORFs in tandem; P2A-mCherry reporter (C, cleaved yes); expressed in transfected cells; host or cells: WT CHO cells (85050302, Sigma), transient transfection
# T2 sequence (Q9UHC3 1-531) 1: T1 sequence (Q9UHC3 1-531)
# T2 sequence (Q9UHC3 1-531) 2: T1 sequence (Q9UHC3 1-531)
# Text: For peptide concentration-response curves, Bottom was set to 0 and Top was constrained to ≤ 1 for peptides that approached plateau phase or where I3s/Ipk reached 1. […] For activation- or desensitization-pH curves, Bottom was set to 0 and Top constrained to 1.
# human ASIC3 [2] = biological target: T1, human ASIC3; test: pH-dependence of steady-state desensitization (SSD) of ASIC3; conditions: conditioning pH 7.0, 30 µM
# Experimental: Lastly, we tested the effect of 30 µM WRPRFa on SSD of ASIC3. First, we sought to determine if, like activation, WRPRFa also changed the pH-dependence of steady-state desensitization for ASIC3. We preconditioned cells at pH 8.0–7.0 for 20 s to elicit SSD, followed immediately by a test pulse to pH 6.3 (Fig. 7F and G) to measure the fraction of channels that were not desensitized. The current evoked by each pH 6.3 test pulse was normalized to the pH 6.3 pulse following pH 8.0 conditioning and plotted against the conditioning pH to determine the pH-dependence of SSD. For untreated cells, the peak current (Ipk) was recorded, and for WRPRFa-treated cells, the current 3 s after the peak (I3s) was used. Untreated channels were completely desensitized at pH 7.0, while the WRPRFa-treated channels reached a plateau at pH 7.0 with about 30% of channels desensitized. […] The 0.11 unit shift is larger than that reported for RPRFa (0.03 unit shift)[30].
# ASIC3 E416Q = biological target: T3, ASIC3 E416Q (Homo sapiens, UniProt Q9UHC3, E416Q); test: MPC peptide activity on ASIC3 E416Q mutant (incl. double mutant cycle); conditions: read-out: EC50 (95% CI)
# T3 construct: human ASIC3 (NM_004769.4); P2A-mCherry reporter (C, cleaved yes); expressed in transfected cells; host or cells: CHO cells (85050302, Sigma), transient transfection
# T3 sequence (Q9UHC3 1-531 E416Q): T1 sequence (Q9UHC3 1-531) with E416Q
# Experimental: We individually mutated the four glutamates to glutamine to remove their charge but maintain the side chain structure (Fig. 4C). We tested each mutant by incubating HEK cells stably expressing ASIC3 or CHO cells transfected with mutant ASIC3 with 30 µM WRPRFa before a pH 6.3 acid stimulus.
# All mutagenesis was performed at Genscript, and sequences were verified by nanopore sequencing by Plasmidsaurus (Eugene, OR). The numbering of ASIC3 amino acids is based on RefSeq NP_004760.1. Plasmids were transfected into CHO cells using Lipofectamine 3000 (Thermo) according to the manufacturer’s protocol. Cells were used for patch-clamp recordings 24–48 h after transfection.
# CHO and HEK cells were tested in the whole-cell configuration on MPC platforms using an Axopatch 200B amplifier (Axon Instruments, San Jose, CA) and a Digidata 1322A or Digidata 1440A digitizer (Axon) using pClamp 9.2 or 10.7 (Molecular Devices, San Jose, CA), respectively. When testing transfected cells, red fluorescence from the cleaved mCherry reporter was used to identify cells expressing ASIC3, ASIC131, or ASIC313. For cells expressing transfected ASIC1a or ASIC2a, the green signal from the cleaved eGFP reporter was used. All electrophysiology data were analyzed with Clampfit 11.1 (Molecular Devices).
substance,measurement,setting,value
WRPRF-NH2 [WRPRFa],current decrease within first 10 s at pH 6.3,human ASIC3 [1]; activated state wash off,about 22%
same,sustained current gone after 3 min,human ASIC3 [1]; pH 8.0 wash off,about 95%
same,pEC50,ASIC313,≤ 4.90
same,channels desensitized at plateau,human ASIC3 [2],about 30%
same,pEC50,ASIC3 E416Q,5.61
